# Earlier results, collected in patent US20050112093A1, “Combination therapy for HCV infection” (priority 2003, published 2005).
# Legend:
# HCV [1] = tested on: HCV
# [2] = majority of patients, over the course of treatment
# HCV [3] = tested on: HCV; remark: listed apart in the source
Compound,"patients achieving a sustained virological response (SVR) (HCV [1]; chronic HCV infection, following six months of therapy)","SVR (HCV [1]; treatment naïve patients, IFN-α alone, 6 months, the latter (upper) value representing 48 weeks of treatment)",mean decrease in hemoglobin [2],serum HCV RNA levels (HCV [3]; ribavirin treatment alone),"liver enzyme levels (HCV [3]; ribavirin used alone, during treatment, return to baseline when treatment is discontinued)"
IFN-α,20%,6-17%,–,–,–
"NC(=O)c1ncn([C@@H]2O[C@H](CO)[C@@H](O)[C@H]2O)n1 [ribavirin, 1-beta-D-ribofuranosyl-1H-1,2,4-triazole-3-carboxamide]",–,–,2 to 3 g/dL,only minimally and transiently decreases serum HCV RNA levels,decreases liver enzyme levels in most patients during treatment
